Measurements: paper PMC7067850, “Identification of highly potent and selective inhibitor, TIPTP, of the p22phox-Rubicon axis as a therapeutic agent for rheumatoid arthritis” (Scientific Reports, 2020)

Key:
[1] = target: T1, CYP1A2 (Homo sapiens, UniProt P05177); assay: CYP450 inhibition assay in human liver microsomes; assay type: in vitro ADME
T1 construct: To human liver microsomes (0.25 mg/mL); from tissue; host or cells: human liver microsomes
T1 sequence (P05177 1-516): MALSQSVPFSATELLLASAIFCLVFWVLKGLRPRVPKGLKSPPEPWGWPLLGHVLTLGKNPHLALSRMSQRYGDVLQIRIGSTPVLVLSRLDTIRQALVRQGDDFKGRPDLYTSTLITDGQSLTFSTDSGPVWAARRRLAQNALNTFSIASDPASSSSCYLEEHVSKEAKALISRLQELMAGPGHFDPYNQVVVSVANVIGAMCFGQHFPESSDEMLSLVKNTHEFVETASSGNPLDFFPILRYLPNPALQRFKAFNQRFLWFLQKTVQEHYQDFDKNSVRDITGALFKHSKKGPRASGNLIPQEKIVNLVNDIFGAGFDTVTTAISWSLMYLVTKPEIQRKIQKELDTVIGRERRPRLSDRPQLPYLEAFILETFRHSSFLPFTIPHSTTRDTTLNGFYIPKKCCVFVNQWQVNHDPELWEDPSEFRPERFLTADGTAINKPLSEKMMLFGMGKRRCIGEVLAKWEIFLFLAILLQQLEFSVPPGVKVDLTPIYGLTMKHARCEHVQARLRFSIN
Protocol: (§1) All of CYP inhibition, microsomal stability and plasma stability experiments were performed by New Drug Development Center, the Daegu-Gyeongbuk Medical Innovation Foundation (DGMIF), South Korea. To human liver microsomes (0.25 mg/mL), 0.1 M phosphate buffer (pH 7.4), a cocktail of five probe substrates (Phenacetin 50 μM, Diclofenac 10 μM, S-mephenytoin 100 μM, Dextromethorphan 5 μM, and Midazolam 2.5 μM), and tested compounds were added at concentrations of 0 μM (as a control) and 10 μM. After incubation at 37 °C for 5 min, NADPH generation system solution was also added and incubated at 37 °C for 15 min again. To terminate the reaction, acetonitrile including internal standard (Terfenadine) was added, and the solution was centrifuged for 5 min (14 000 rpm, 4 °C). The supernatant was then injected into the LC-MS/MS system to simultaneously analyze the metabolites of the probe substrates and evaluate the % CYP inhibition of the tested compound.

[2] = target: T2, CYP2D6 (Homo sapiens, UniProt P10635); assay: CYP450 inhibition assay in human liver microsomes; assay type: in vitro ADME
T2 construct: To human liver microsomes (0.25 mg/mL); from tissue; host or cells: human liver microsomes
T2 sequence (P10635 whole entry): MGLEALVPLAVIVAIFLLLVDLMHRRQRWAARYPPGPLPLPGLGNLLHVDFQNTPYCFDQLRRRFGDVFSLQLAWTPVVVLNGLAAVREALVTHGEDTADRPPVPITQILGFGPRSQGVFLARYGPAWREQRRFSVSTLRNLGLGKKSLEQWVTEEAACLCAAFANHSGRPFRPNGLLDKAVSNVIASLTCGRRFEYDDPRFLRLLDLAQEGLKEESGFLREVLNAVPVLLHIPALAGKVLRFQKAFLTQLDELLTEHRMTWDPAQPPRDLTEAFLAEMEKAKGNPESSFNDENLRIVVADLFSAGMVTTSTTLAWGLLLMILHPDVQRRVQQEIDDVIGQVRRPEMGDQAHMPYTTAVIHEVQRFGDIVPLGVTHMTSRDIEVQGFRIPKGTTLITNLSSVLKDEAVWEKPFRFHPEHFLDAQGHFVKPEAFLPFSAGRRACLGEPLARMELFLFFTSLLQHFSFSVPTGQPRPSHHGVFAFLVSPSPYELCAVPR
Protocol: as §1

[3] = target: T3, CYP3A4 (Homo sapiens, UniProt P08684); assay: CYP450 inhibition assay in human liver microsomes; assay type: in vitro ADME
T3 construct: To human liver microsomes (0.25 mg/mL); from tissue; host or cells: human liver microsomes
T3 sequence (P08684 whole entry): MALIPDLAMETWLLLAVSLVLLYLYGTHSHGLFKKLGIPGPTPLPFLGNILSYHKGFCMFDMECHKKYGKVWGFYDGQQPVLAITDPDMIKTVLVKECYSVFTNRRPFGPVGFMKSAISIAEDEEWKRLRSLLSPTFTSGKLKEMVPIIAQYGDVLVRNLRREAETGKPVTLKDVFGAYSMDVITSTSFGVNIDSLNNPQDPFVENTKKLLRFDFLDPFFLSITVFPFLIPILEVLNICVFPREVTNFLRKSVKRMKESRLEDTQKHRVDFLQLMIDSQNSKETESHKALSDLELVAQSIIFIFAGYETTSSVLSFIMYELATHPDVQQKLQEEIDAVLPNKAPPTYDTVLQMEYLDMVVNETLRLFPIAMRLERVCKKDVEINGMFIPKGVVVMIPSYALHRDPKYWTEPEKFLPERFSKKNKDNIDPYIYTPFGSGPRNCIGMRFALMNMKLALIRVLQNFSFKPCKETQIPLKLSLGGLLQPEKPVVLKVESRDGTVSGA
Protocol: as §1

[4] = test system: NADPH oxidase; assay: NADPH oxidase activity (lucigenin-ECL) in BMDMs; assay type: cell-based, mouse; conditions: LPS or LPS/ATP stimulated (Fig. 3c, Supplemental Fig. 5b, 5e)
Protocol: Intracellular superoxide production was measured by the lucigenin (bis-N-methylacridinium nitrate)-ECL method[18],[19]. Briefly, cells lysates were allowed to equilibrate for 30 min at 37 °C in a reaction containing 50 mM phosphate buffer (pH 7.0), 1 mM EGTA, 150 mM sucrose, and a protease inhibitor mixture prior to the addition of Krebs-HEPES buffer containing lucigenin (5 μM) as the electron acceptor and NADPH (100 μM) as the electron donor. The values are expressed as relative light units per 1 × 10^5 cells.
Figure 3 TIPTP robustly suppresses LPS/ATP-mediated Rubicon-p22phox interaction and ROS-mediated inflammation. (a) Structure of the TIPTP. (b) MTT assay for cell viability. BMDMs were incubated with TIPTP for the indicated times at the indicated TIPTP concentrations (upper). WCLs were used for IB with α22phox, αRubicon, or αActin (lower). (c–f) LPS (100 ng/ml)-primed BMDMs were treated with compounds for 1 h, and then activated with ATP (1 mM) for 30 min. (c) NADPH oxidase activity. (d) FACS analysis for superoxide and hydrogen peroxide (upper). Quantitative analysis of mean fluorescence intensities of ROS (lower). (e) BMDMs were incubated with increasing concentrations of compound 1 and TIPTP (com 2) (***). IP with αRubicon, followed by IB with αp22phox, αBeclin-1, αUVRAG, αRubicon. […] (f) Culture supernatants were harvested and analyzed for cytokines by ELISA. […]

C[C@@H](Oc1cccc(-n2cc3c(n2)CCCC3)c1)C(=O)Nc1nnc(C(F)(F)F)s1 [TIPTP, (R)-2-(3-(4,5,6,7-tetrahydro-2H-indazol-2-yl)phenoxy)-N-(5-(trifluoromethyl)-1,3,4-thiadiazol-2-yl)propanamide]
CYP (% of control activity @ 10 μM) 1A2 [1]: 45.7%
CYP (% of control activity @ 10 μM) 2D6 ([2]; 10 μM): 98.2%
effect on the CYP2D6 isozyme ([2]; in words): negligible
CYP (% of control activity @ 10 μM) 3A4 [3]: 76.6%
NOX activity [4]: inhibited in a dose-dependent manner
